Where two headings read alike, the source gives them in different places.
Tests used:
[1] = test system: porcine brain capillary endothelial cells (PBCEC)
PBCEC monolayer [2] = format: cell-based, porcine
PBCEC monolayer [3] = test system: PBCEC monolayer
[4] = pig, in vivo; cited from earlier work
[5] = pig, in vivo, 0.6 mg; cited from earlier work
Sprague-Dawley rats [6] = conditions: rat, in vivo, po; cited from earlier work
in vitro = conditions: pig
dendric cells = conditions: cited from earlier work
PBCEC monolayer [7] = conditions: pig
PBCEC monolayer [8] = conditions: pig; remark: listed apart in the source
Sprague-Dawley rats [9] = conditions: rat, in vivo, po; cited from earlier work; remark: listed apart in the source
macrophages = conditions: cited from earlier work
[10] = test system: normal human astrocytes (NHA); conditions: read-out: IC50, cytotoxic effects; cited from earlier work

## CC(=O)O[C@@H]1C[C@]2(C)[C@@]3(CO)[C@H](O)C(=O)C(C)=C[C@H]3O[C@H]1[C@@]21CO1 [3-AcDON, 3-acetyldeoxynivalenol]
[1]
  effect in CCK-8 assay (dehydrogenase activity), in words: significant increase in dehydrogenase activity
PBCEC monolayer [2]
  change of electrical capacitance c CL, in words: Neither 3-AcDON, nor MON showed significant changes
  relative TEER after 48 h: 63±9%
PBCEC monolayer [3]; pig
  concentration in the apical compartment: 174 ± 20 nM
  concentration in the basolateral compartment: 198 ± 16 nM
  enrichment in one compartment / active transport, in words: an active transfer or a noteworthy enrichment of DON or 3-AcDON can be excluded

## CC1=C[C@H]2O[C@@H]3[C@H](O)C[C@](C)([C@@]2(CO)[C@H](O)C1=O)[C@]31CO1 [DON, deoxynivalenol]
[1]
  effect in CCK-8 assay (dehydrogenase activity), in words: significant increase in dehydrogenase activity
[4]
  time of maximum concentration in CSF and blood: 4.5 h
PBCEC monolayer [2]
  electrical capacitance c CL after 48 h: 81±2%
PBCEC monolayer [3]
  enrichment in one compartment / active transport, in words: no enrichment in the apical or the basolateral compartment was detected
PBCEC monolayer [3]; pig
  concentration in the apical compartment: 211 ± 15 nM
  concentration in the basolateral compartment: 199 ± 14 nM
[5]
  systemic bioavailability: 48–65%

## O=c1cc(O)c1=O [MON, moniliformin]
Sprague-Dawley rats [6]
  administered dose detected in feces: 2%
  administered dose excreted via urine: 20.2-31.5%
  lowest observed adverse effect level (LOAEL): 3 mg/kg body weight
[1]
  effect on cellular viability, in words: no significant effects on the cellular viability
PBCEC monolayer [2]
  change of electrical capacitance c CL, in words: Neither 3-AcDON, nor MON showed significant changes
  relative TEER after 48 h: 94±15%
In vitro
  Papp A→B: 1.07 ± 0.23 ×10⁻⁶ cm/s
Dendric cells
  reduction of cellular viability: 20%
PBCEC monolayer [7]
  p c(14C sucrose), sucrose permeability of the monolayer after mycotoxin incubation: 0.19±0.05
PBCEC monolayer [3]
  enrichment in one compartment / active transport, in words: not enriched in any compartment
PBCEC monolayer [3]; pig
  concentration in the apical compartment: 237 ± 23 nM
  concentration in the basolateral compartment: 228 ± 27 nM
PBCEC monolayer [8]
  amount detected in the basolateral compartment: 27±6%
  amount recovered in the apical compartment: 76±12%
Sprague-Dawley rats [9]
  LD50 cut-off value: 25 mg/kg body weight
  administered dose detected in urine: 38%
  total recovery in feces: less than 1%
  total recovery in urine: 42%
macrophages
  effect on viability of macrophages, in words: does not reduce the viability of macrophages

## CC(=O)OC[C@]12C[C@H](OC(=O)CC(C)C)C(C)=C[C@H]1O[C@@H]1[C@H](O)[C@@H](OC(C)=O)[C@@]2(C)[C@]12CO2 [T-2 toxin, reference compound]
[1]; 10 µM
  cellular viability: < 2%
[10]
  IC50: 24 ± 4.5 nM
